Assay results published in patent US5097014A, “Chromogenic tripeptides” (Behringwerke Aktiengesellschaft, priority 1986, dated 1992).
Square brackets hold non-standard residues; d marks the D form. Peptide text beside a SMILES is read from it. * marks the point of attachment. pNA = O=[N+]([O-])c1ccc(N*)cc1; pGlu = O=C1CC[C@@H](C(=O)O)N1

How the values were obtained:
Type in all cases: biochemical
Settings in all cases: substrate solution 2 mmol/l (100 μl in 1 ml), tris buffer 50 mmol/l pH 8.0, 37° C.; pNA measured at 405 nm, Blue 49 at 623 nm
kallikrein = experiment: Substrate testing: cleavage of chromogenic substrate by kallikrein
Procedure: (§1) 100 μl of the enzyme solution were added to a 800 μl of buffer solution (trishydroxyaminomethane, 50 mmol/l), pH 8.0, at 37° C., and 100 μl of 2 mmol/l of substrate solution were added. pNA cleaved off was measured at 405 nm, and Blue 49 or Blue 124 was measured at 623 nm. The cleavage rates were determined in OD/minute. The relative cleavage raten, and thus the specificities of some substrates and enzymes, can be seen from Table II.

thrombin = thrombin (Homo sapiens, UniProt P00734); experiment: Substrate testing: cleavage of chromogenic substrate by thrombin
Procedure: as §1

F Xa = F Xa (Homo sapiens, UniProt P00742); experiment: Substrate testing: cleavage of chromogenic substrate by F Xa
Chain of F Xa (P00742 235-488 limits assumed): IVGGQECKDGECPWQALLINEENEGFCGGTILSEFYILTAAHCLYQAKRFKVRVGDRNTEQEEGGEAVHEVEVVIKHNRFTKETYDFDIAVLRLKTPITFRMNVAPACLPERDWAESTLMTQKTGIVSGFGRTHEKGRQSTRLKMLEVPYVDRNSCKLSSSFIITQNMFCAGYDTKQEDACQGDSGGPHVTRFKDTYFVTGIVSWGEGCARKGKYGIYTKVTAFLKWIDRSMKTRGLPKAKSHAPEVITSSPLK
Chain of F Xa (P00742 41-179 partner limits assumed): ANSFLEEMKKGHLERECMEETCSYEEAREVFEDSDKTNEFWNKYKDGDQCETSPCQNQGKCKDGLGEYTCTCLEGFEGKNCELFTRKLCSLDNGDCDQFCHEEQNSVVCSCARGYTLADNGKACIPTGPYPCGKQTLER
Procedure: as §1

plasmin = plasmin (Homo sapiens, UniProt P00747); experiment: Substrate testing: cleavage of chromogenic substrate by plasmin
Chain of plasmin (P00747 581-810 limits assumed, species assumed): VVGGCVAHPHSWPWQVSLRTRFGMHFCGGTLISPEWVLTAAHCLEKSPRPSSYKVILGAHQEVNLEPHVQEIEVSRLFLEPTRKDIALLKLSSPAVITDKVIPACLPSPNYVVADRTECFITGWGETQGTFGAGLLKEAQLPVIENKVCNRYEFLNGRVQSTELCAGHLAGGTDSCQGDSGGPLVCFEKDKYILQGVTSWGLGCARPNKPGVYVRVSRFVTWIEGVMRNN
Chain of plasmin (P00747 97-580 partner limits assumed, species assumed): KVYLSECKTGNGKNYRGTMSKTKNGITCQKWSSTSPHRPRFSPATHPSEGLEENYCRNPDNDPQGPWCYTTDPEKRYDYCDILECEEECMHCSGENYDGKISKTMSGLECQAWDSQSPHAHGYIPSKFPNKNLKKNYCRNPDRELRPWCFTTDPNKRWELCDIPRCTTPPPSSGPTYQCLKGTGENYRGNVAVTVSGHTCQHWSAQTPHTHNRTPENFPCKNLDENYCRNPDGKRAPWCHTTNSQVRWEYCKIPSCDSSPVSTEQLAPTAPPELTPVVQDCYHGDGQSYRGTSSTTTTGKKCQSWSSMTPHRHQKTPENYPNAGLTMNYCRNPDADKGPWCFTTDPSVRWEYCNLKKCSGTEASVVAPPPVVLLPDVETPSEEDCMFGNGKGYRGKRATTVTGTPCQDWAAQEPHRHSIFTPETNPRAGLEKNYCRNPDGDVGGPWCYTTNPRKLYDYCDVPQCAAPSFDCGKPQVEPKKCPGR
Procedure: as §1

protein C = protein C (Homo sapiens, UniProt P04070); experiment: Substrate testing: cleavage of chromogenic substrate by protein C
Chain of protein C (P04070 212-461 limits assumed): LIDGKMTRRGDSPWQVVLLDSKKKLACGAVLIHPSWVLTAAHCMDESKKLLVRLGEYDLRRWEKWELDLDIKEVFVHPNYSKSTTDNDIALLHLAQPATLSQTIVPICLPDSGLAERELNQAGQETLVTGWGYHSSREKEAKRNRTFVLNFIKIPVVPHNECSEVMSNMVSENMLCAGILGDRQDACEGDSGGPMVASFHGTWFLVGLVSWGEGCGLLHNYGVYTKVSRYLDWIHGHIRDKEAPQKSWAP
Chain of protein C (P04070 43-197 partner limits assumed): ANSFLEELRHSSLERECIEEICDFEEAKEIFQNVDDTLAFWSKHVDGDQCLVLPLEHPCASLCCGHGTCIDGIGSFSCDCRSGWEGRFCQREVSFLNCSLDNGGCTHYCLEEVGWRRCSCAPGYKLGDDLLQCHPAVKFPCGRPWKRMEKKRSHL
Procedure: as §1

urokinase = urokinase (Homo sapiens, UniProt P00749); experiment: Substrate testing: cleavage of chromogenic substrate by urokinase
Procedure: as §1

Row | Compound | cleavage rate, thrombin (thrombin) [OD/minute] | cleavage rate, F Xa (F Xa) [OD/minute] | cleavage rate, plasmin (plasmin) [OD/minute] | cleavage rate, protein C (protein C) [OD/minute] | cleavage rate, urokinase (urokinase) | cleavage rate, kallikrein (kallikrein) [OD/minute]
1 | 7-(D-phenylalanyl-L-prolyl-L-arginylamino)-3-diethylamino-8-methylphenoxazo nium triacetate [H--D--Phe--Pro--Arg--Blue 49] | 0.395 | 0.01 | 0.00 | 0.03 |  | 0.00
2 | N=C(N)NCCC[C@H](NC(=O)[C@@H]1CCCCN1C(=O)[C@H](N)Cc1ccccc1)C(=O)Nc1ccc([N+](=O)[O-])cc1 [H--D--Phe--Pip--Arg--pNA, reference compound] | 0.41 | 0.025 | 0.035 | 0.075 |  | 0.11
3 | N=C(N)NCCC[C@H](NC(=O)CNC(=O)[C@@H]1CCC(=O)N1)C(=O)Nc1ccc([N+](=O)[O-])cc1 [pyro--Glu--Gly--Arg--pNA, reference compound] ([pGlu]-Gly-Arg-pNA) | 0.00 | 0.01 | 0.01 | 0.30 |  | 0.01
4 | D--Leu--Pro--Arg--Blue 49 [H--D--Leu--Pro--Arg--Blue 49] | 0.09 | 0.035 | 0.015 | 0.47 |  | 0.015
5 | Tos--Gly--Pro--Arg--Blue 49 | 0.15 | 0.095 | 0.02 | 0.76 |  | 0.02

Continued, in another order:

Row | cleavage rate, thrombin (thrombin) [OD/minute] | cleavage rate, F Xa (F Xa) [OD/minute] | cleavage rate, plasmin (plasmin) [OD/minute] | cleavage rate, protein C (protein C) [OD/minute] | cleavage rate, urokinase (urokinase) | Compound | cleavage rate, kallikrein (kallikrein) [OD/minute]
6 | 0.41 | 0.04 | 0.53 | 0.40 |  | N=C(N)NCCC[C@H](NC(=O)[C@@H]1CCCN1C(=O)[C@@H]1CCC(=O)N1)C(=O)Nc1ccc([N+](=O)[O-])cc1 [pyro--Glu--Pro--Arg--pNA, reference compound] ([pGlu]-Pro-Arg-pNA) | 0.51
7 | 0.015 | 0.02 | 0.03 | 0.22 | 1,0 OD/minute | pyro--Glu--Pro--Arg--Blue 49 | 0.015
